# Measurements taken from US20100286415A1, “SLEEP-IMPROVING AGENT” (OSAKA BIOSCIENCE INSTITUTE, priority 2007, published 2010).
# Key:
# Slc:ICR mice = experiment: Locomotor assay (amount of locomotion) in mice, infrared monitor (Test Example 2); type: in vivo, mouse; conditions: 100 mg/kg oral, administered at start of dark period, compared to vehicle (water), FIG. 2
# Description: Slc:ICR mice (male, 10 weeks old, weighing 38-40 g) were purchased from Japan SLC, Inc.
# The mice were housed in groups (8 mice per group) in acrylic cages placed in a chamber for monitoring the amount of animal behavior, and were habituated for 7 days. They were given solid rat food (food name: Labo MR Stock) in a 12-hour light and dark cycle (light period starting at 7 a.m.), with free access to food and drinking water.
# (§1) Oxypinnatanine was dissolved in water, and a dosage weight of 100 mg/kg was orally administered using a probe. Administration was carried out at 19:00 (starting time of a dark period). On day 1, water was solely administered as a control containing only the solvent. On day 2, oxypinnatanine was administered (n=8).
# An infrared monitor was used to detect infrared light emitted from the animals to count the amount of locomotion. The infrared monitor recorded continuously for 12 hours. Recording was conducted using a Biotex 16CH Act Monitor BAI2216 (Biotex). For analysis, the time-dependent change in the amount of locomotion and the total amount of locomotion in each hour were calculated.
# Sprague-Dawley rats = experiment: EEG/EMG sleep recording in rats after oral administration (Test Example 1); type: in vivo, rat; conditions: 100 mg/kg oral, administered at start of dark period, compared to vehicle (water), FIG. 1
# Description: Sprague-Dawley rats (male, 8 weeks old, weighing 250-280 g) were purchased from Japan SLC, Inc.
# The rats were individually housed in acrylic cages placed in a sound insulation chamber. They were given solid rat food (food name: Labo MR Stock) in a 12-hour light and dark cycle (light period starting at 7 a.m.), with free access to food and drinking water.
# (§2) An operation to implant electrodes for measuring EEG/EMG was performed on the rats (Huang Z. L. et al., J. Neurosci. 2003, 23(14), 5975-83., Okada T. et al., Biochem. Biophys. Res. Commun. 2003, 312(1), 29-34). The rats were placed in a chamber for recovery for 10 days, and recovered. Then, the rats were moved to a chamber for recording, and measurement cables were connected to the electrodes. The rats were adapted to the environment for 4 days.
# Oxypinnatanine was dissolved in water, and a dosage of 100 mg/kg was orally administered using a probe. Administration was carried out at 19:00 (starting time of a dark period). […]
# (§3) The EEG and EMG were amplified (EEG: 0.5-30 Hz, EMG: 20-200 Hz), and then digitalized at a sampling speed of 128 Hz for recording. […] EEG data over 12 hours after administration were analyzed. Then, waking time, non-REM sleep time, and REM sleep time per hour were calculated. Further, the EEG power spectrum was analyzed, and the amplitudes of theta waves and delta waves were thereby analyzed.
# C57BL/6 mice = experiment: EEG/EMG sleep recording in mice after oral administration (Test Example 3); type: in vivo, mouse; conditions: 10 mg/kg oral, administered at start of dark period, compared to vehicle (water), FIG. 3
# Description: C57BL/6 mice (male, 10 weeks old, weighing 25-28 g) were purchased from Oriental BioService Inc.
# The mice were individually housed in acrylic cages placed in a sound insulation chamber. They were given solid mouse food (food name: Labo MR Stock) in a 12-hour light and dark cycle (light period starting at 8 a.m.), with free access to food and drinking water.
# as §2, with “mice.” for “rats (Huang Z. L. et al., J. Neurosci. 2003, 23(14), 5975-83., Okada T. et al., Biochem. Biophys. Res. Commun. 2003, 312(1), 29-34).”, “mice” for “rats”
# as §1, with “dosage” for “dosage weight”, “10” for “100”, “20:00” for “19:00”, “(n=4).” for “(n=8).”
# as §3, with “at the” for “at a”
compound,measurement,setting,value
"NC(CC(O)C(=O)NC1OCC=C1CO)C(=O)O (stereo not shown) (hydrate or solvate) [Oxypinnatanine, oxypinnatanine]",melting point,,152 to 153 °C (dec.)
"NC(CC(O)C(=O)NC1OCC=C1CO)C(=O)O (stereo not shown) [Oxypinnatanine, oxypinnatanine]",Total amount of locomotion during 6 hours after administration,Slc:ICR mice,statistically significant decrease in the amount of locomotion
same,Total non-REM sleep time during 6 hours after administration,Sprague-Dawley rats,effect of increasing non-REM sleep time
same,Total non-REM sleep time during 4 hours after administration,C57BL/6 mice,effect of increasing non-REM sleep time with statistical significance
